Measurements as given in patent US20030017976A1, “Therapeutic properties of liposome-encapsulated immunomodulators” (priority 1998, published 2003).

Tests used:
[1] = system: PEM (TNF-α, IL-1α, IL-6, NO); assay: Cytokine and nitrite production by PEM (ELISA, Griess); format: cell-based, mouse; conditions: PEM treated with LPS or MLV-JBT3002, genistein 100 μM, PD-98059 10 μM, calphostin-C 250 nM; for effect of kinase inhibitor on production of TNF-α: H-89
Experimental: Peritoneal exudate macrophages (PEM) were collected by peritoneal lavage from mice given an intraperitoneal injection of 1.5 ml of thioglycollate broth (Baltimore Biological Laboratory, Cockeysville, Md.) 4 days before harvest.(Saiki I, et al. J Immunol (1985) 135:684 688; Dong Z, et a.l J Leukoc Biol (1993) 53:53-60; Dong Z, J et al. J Exp Med (1993) 177:1071-1077) The PEM were washed in CA^2+- and MG^2+-free HBSS and resuspended in serum-free medium: 1×10^5 cells were plated into each 38-mm^2 well of 96-well culture plates (Falcon Plastics, Oxnard, Calif.). After a 90-minute incubation, the nonadherent cells were removed by washing them with medium. More than 98% of the adherent cell populations were macrophages according to morphology and phagocytic criteria. (Saiki I, et al. J Immunol (1985) 135:684 688)
PEM in 96-well plates at a density of 10^5 cells/well/200 μl of medium were treated as indicated in Results. The culture supernatants were harvested and used immediately for the cytokine assays or stored at −70° C. For cell lysates, supernatants were removed and macrophages were frozen-thawed in fresh medium. Specific cytokines in the supernatants or cell lysates (diluted at 1:5 or 1:10) were measured by ELISA kits according to manufacturer's instructions.
The nitrite concentration in culture supernatants was determined by a microplate assay as described previously. Briefly, 50-μl samples harvested from PEM-conditioned medium were treated with an equal volume of Griess reagent (1% sulfanilamide, 0.1% naphthylene diamine dihydrochloride, and 2.5% H3PO4) at room temperature for 10 minutes. The absorbance at 540 nm was monitored with a microplate reader. The nitrite concentration was determined using sodium nitrite as a standard.

[2] = system: CT-26 colon cancer liver metastasis; assay: Combination therapy of MTP-PE and CPT-11 for CT-26 colon cancer liver metastasis
C57BL/6 mice = assay: Prevention of CPT-11 induced intestinal damage and morbidity by oral immunomodulator; format: in vivo, mouse; conditions: for Death / Morbidity: 4 daily i.p., oral saline or free-form MTP-PE 100 ug/dose for one week before
Experimental: Experimental Design and Methods. […] Tissue was harvested 7 days after the last injection (small intestine and colon distal to the cecum). Histology was prepared. Some mice were monitored for the presence of drug toxicity.
Example 6 has shown that 100, 150, and 200 mg/kg at 4 consecutive i.p. administrations are highly toxic to C57BL/6 mice.

[3] = CPT-11 50 mg/kg, oral saline or MTP-PE

For `O=S(=O)(NCCNC/C=C/c1ccc(Br)cc1)c1cccc2cnccc12` [H-89], the “effect of kinase inhibitor on production of TNF-α” value [1] was “Neither calphostin-C nor H-89 had a significant effect”.

In the case of `CCCCCCCCCCCCCCCC(=O)OC[C@H](COP(=O)(O)OCCNC(=O)[C@H](C)NC(=O)CC[C@@H](NC(=O)[C@H](C)NC(=O)[C@@H](C)O[C@H]1[C@H](O)[C@@H](CO)OC(O)[C@@H]1NC(C)=O)C(N)=O)OC(=O)CCCCCCCCCCCCCCC` (stereo partly shown) [MTP-PE, muramyl tripeptide phosphatidylethanolamine], the “Liver Median no. metastases” value [2, 3] is reported as 30, the “Liver weight” value [2, 3] is reported as 2.2 ± 0.7 and the “Spleen Tumor size” value [2, 3] is reported as 10.4 ± 2 mm. For the same compound, the “Spleen Weight” value [2, 3] was 0.6 ± 0.2 g, the “Liver Median no. metastases” value ([2]; CPT-11 100 mg/kg, oral MTP-PE) was 4 and the “Liver weight” value ([2]; CPT-11 100 mg/kg, oral MTP-PE) was 1.2 ± 0.1. For the same compound, the “Spleen Tumor size” value ([2]; CPT-11 100 mg/kg, oral MTP-PE) was 5.6 ± 2 mm, the “Spleen Weight” value ([2]; CPT-11 100 mg/kg, oral MTP-PE) was 0.3 ± 0.1 g and the Death (C57BL/6 mice; CPT-11 100 mg/kg) was 0/10. For the same compound, the Morbidity (C57BL/6 mice; CPT-11 100 mg/kg) was 0/0, the “damage to intestinal tissue” value (C57BL/6 mice; CPT-11 100 mg/kg, oral MTP-PE 100 μg/dose three consecutive days per week, C57BL/6 mice) was “prevents this damage to intestinal tissue” and the Death (C57BL/6 mice; CPT-11 150 mg/kg) was 2/10. The Morbidity (C57BL/6 mice; CPT-11 150 mg/kg) was 4/10, the Death (C57BL/6 mice; CPT-11 200 mg/kg) was 6/10 and the Morbidity (C57BL/6 mice; CPT-11 200 mg/kg) was 8/10. The “minimum treatment schedule to prevent GI toxicity by CPT-11” value (C57BL/6 mice; free-form MTP-PE 100 μg/dose oral, CPT-11 even at 100 mg/kg) was “Three oral administrations of MTP-PE (1 week) were sufficient to prevent GI toxicity” and the “GI toxicity (histology of intestinal villi and lumen)” value (C57BL/6 mice; oral PBS or MTP-PE 100 μg/dose 3×/week for 3 weeks, then 4 i.p. injections of CPT-11) was “no histological (or clinical) evidence of GI toxicity”.

For `COc1cccc(-c2cc(=O)c3ccccc3o2)c1N` [PD-98059], the “effect of kinase inhibitor on production of NO” value [1] was “did not alter” and the “effect of kinase inhibitor on production of TNF-α” value [1] was “did not alter”.

calphostin-C was tested, and the “effect of kinase inhibitor on production of NO” value [1] was “did inhibit NO production” and the “effect of kinase inhibitor on production of TNF-α” value [1] was “Neither calphostin-C nor H-89 had a significant effect”.
